Tests used:
[1] = molecular target: T1, KRAS (G12D) (Homo sapiens, UniProt P01116, G12D); assay: KRAS (G12D) cellular degradation assay in AsPC-1 cells; assay type: cell-based; conditions: 24 hours, antibody fluorescence (Odyssey CLX), DC50 half-maximal degradation concentration
T1 construct: in-cell western with KRAS G12D antibody after 24 h
How it was run: (§1)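 Degradation: 22,000 cells/well grown to ~90% confluency, 24 h compound, fixed/permeabilised, anti-KRAS G12D + β-actin antibodies, near-IR fluorescence, DC50. Proliferation: 3,500 cells/well overnight, 6 d compound, CellTiter Glo luminescence, IC50. Dosing […]–1.5 nM final, 1:3 steps.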

[2] = system: AsPC-1 cells; assay: AsPC-1 cell proliferation assay (CellTiter Glo); assay type: cell-based; conditions: 6 days
How it was run: as §1

T1 sequence (P01116 1-188 isoform P01116-2 G12D): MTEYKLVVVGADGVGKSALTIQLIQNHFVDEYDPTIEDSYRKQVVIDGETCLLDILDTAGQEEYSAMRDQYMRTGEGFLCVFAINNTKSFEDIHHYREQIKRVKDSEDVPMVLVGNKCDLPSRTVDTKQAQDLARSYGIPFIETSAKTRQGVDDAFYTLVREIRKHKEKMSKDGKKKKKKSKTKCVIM

DC50 [1] [nM]	IC50 ([2]; Homo sapiens, ASPC1, 144 h) [nM]	IC50 [2] [nM]	Compound
< 10	< 10	–	CCn1nccc1-c1ccc([C@@H](NC(=O)[C@@H]2C[C@@H](O)CN2C(=O)[C@H](C(C)C)n2cc(-c3ccc(COc4c(-c5c(C)c(F)cc6[nH]ncc56)c(C5CC5)cc5c(N6C[C@@H]7C[C@H]6CN7)nc(OC6CCC(OC)CC6)nc45)cc3)nn2)[C@@H](C)O)cc1 (stereo partly drawn) [Example 127, (2S,4R)-1-((2S)-2-(4-(4-(((4-((1S,4S)-2,5-diazabicyclo[2.2.1]heptan-2-yl)-6-cyclopropyl-7-(6-fluoro-5-methyl-1H-indazol-4-yl)-2-((4-methoxycyclohexyl)oxy)quinazolin-8-yl)oxy)methyl)phenyl)-1H-1,2,3-triazol-1-yl)-3-methylbutanoyl)-N-((1R,2R)-1-(4-(1-ethyl-1H-pyrazol-5-yl)phenyl)-2-hydroxypropyl)-4-hydroxypyrrolidine-2-carboxamide]
10 to 100	10 to 100	–	CO[C@@H](C)COc1nc(N2C[C@@H]3C[C@H]2CN3)c2cc(C3CC3)c(-c3c(C)c(F)cc4[nH]ncc34)c(OCc3ccc(-c4cn([C@H](C(=O)N5C[C@H](O)C[C@H]5C(=O)N[C@H](C#Cc5ccc(F)cc5F)CO)C(C)C)nn4)cc3)c2n1 [Example 40, (2S,4R)-1-((2S)-2-(4-(4-(((4-((1S,4S)-2,5-diazabicyclo[2.2.1]heptan-2-yl)-6-cyclopropyl-7-(6-fluoro-5-methyl-1H-indazol-4-yl)-2-((S)-2-methoxypropoxy)quinazolin-8-yl)oxy)methyl)phenyl)-1H-1,2,3-triazol-1-yl)-3-methylbutanoyl)-N—((R)-4-(2,4-difluorophenyl)-1-hydroxybut-3-yn-2-yl)-4-hydroxypyrrolidine-2-carboxamide]
10 to 100	< 10	–	CO[C@@H](C)COc1nc(N2C[C@@H]3C[C@H]2CN3)c2cc(C3CC3)c(-c3c(C)c(F)cc4[nH]ncc34)c(OCc3ccc(-c4cn([C@H](C(=O)N5C[C@H](O)C[C@H]5C(=O)N[C@H](C#Cc5ccc6ncsc6c5)CO)C(C)C)nn4)cc3)c2n1 [Example 54, (2S,4R)-1-((2S)-2-(4-(4-(((4-((1S,4S)-2,5-diazabicyclo[2.2.1]heptan-2-yl)-6-cyclopropyl-7-(6-fluoro-5-methyl-1H-indazol-4-yl)-2-((S)-2-methoxypropoxy)quinazolin-8-yl)oxy)methyl)phenyl)-1H-1,2,3-triazol-1-yl)-3-methylbutanoyl)-N—((R)-4-(benzo[d]thiazol-6-yl)-1-hydroxybut-3-yn-2-yl)-4-hydroxypyrrolidine-2-carboxamide]
10 to 100	–	10 to 100	CCn1nccc1-c1ccc([C@H](CO)NC(=O)[C@@H]2C[C@@H](O)CN2C(=O)[C@H](C(C)C)n2cc(-c3ccc(COc4c(-c5c(C)c(F)cc6[nH]ncc56)c(C5CC5)cc5c(N6CC7CCC(C6)N7)nc(OC[C@H](C)OC)nc45)cc3)nn2)cc1 (single isomer, unassigned) [Example 8]
< 10	< 10	–	Cc1ncsc1-c1ccc([C@H](CO)NC(=O)[C@@H]2C[C@@H](O)CN2C(=O)[C@H](C(C)C)n2cc(-c3ccc(COc4c(-c5c(C)c(F)cc6[nH]ncc56)c(C5CC5)cc5c(N6C[C@@H]7C[C@H]6CN7)nc(OC6CCC7(CC6)COC7)nc45)cc3)nn2)cc1 [Example 63, (2S,4R)-1-((2S)-2-(4-(4-(((2-((2-oxaspiro[3.5]nonan-7-yl)oxy)-4-((1S,4S)-2,5-diazabicyclo[2.2.1]heptan-2-yl)-6-cyclopropyl-7-(6-fluoro-5-methyl-1H-indazol-4-yl)quinazolin-8-yl)oxy)methyl)phenyl)-1H-1,2,3-triazol-1-yl)-3-methylbutanoyl)-4-hydroxy-N—((R)-2-hydroxy-1-(4-(4-methylthiazol-5-yl)phenyl)ethyl)pyrrolidine-2-carboxamide]
< 10	< 10	–	CCn1nccc1-c1ccc([C@H](CO)NC(=O)[C@@H]2C[C@@H](O)CN2C(=O)[C@H](C(C)C)n2cc(-c3ccc(COc4c(-c5c(C)c(F)cc6[nH]ncc56)c(C5CC5)cc5c(N6C[C@@H]7C[C@H]6CN7)nc(OC6CC7(CCOCC7)C6)nc45)cc3)nn2)cc1 [Example 105, (2S,4R)-1-((2S)-2-(4-(4-(((2-((7-oxaspiro[3.5]nonan-2-yl)oxy)-4-((1S,4S)-2,5-diazabicyclo[2.2.1]heptan-2-yl)-6-cyclopropyl-7-(6-fluoro-5-methyl-1H-indazol-4-yl)quinazolin-8-yl)oxy)methyl)phenyl)-1H-1,2,3-triazol-1-yl)-3-methylbutanoyl)-N—((R)-1-(4-(1-ethyl-1H-pyrazol-5-yl)phenyl)-2-hydroxyethyl)-4-hydroxypyrrolidine-2-carboxamide]
10 to 100	10 to 100	–	CCn1nccc1-c1ccc([C@H](CO)NC(=O)[C@@H]2C[C@@H](O)CN2C(=O)[C@H](C(C)C)n2cc(-c3ccc(COc4c(-c5c(C)c(F)cc6[nH]ncc56)c(C5CC5)cc5c(N6C7CNCC6COC7)nc(OC[C@H](C)OC)nc45)cc3)nn2)cc1 [Example 61, (2S,4R)-1-((2S)-2-(4-(4-(((4-(3-oxa-7,9-diazabicyclo[3.3.1]nonan-9-yl)-6-cyclopropyl-7-(6-fluoro-5-methyl-1H-indazol-4-yl)-2-((S)-2-methoxypropoxy)quinazolin-8-yl)oxy)methyl)phenyl)-1H-1,2,3-triazol-1-yl)-3-methylbutanoyl)-N—((R)-1-(4-(1-ethyl-1H-pyrazol-5-yl)phenyl)-2-hydroxyethyl)-4-hydroxypyrrolidine-2-carboxamide]
< 10	< 10	–	Cc1ncsc1-c1ccc([C@@H](NC(=O)[C@@H]2C[C@@H](O)CN2C(=O)[C@H](C(C)C)n2cc(-c3ccc(COc4c(-c5c(C)c(F)cc6[nH]ncc56)c(C5CC5)cc5c(N6C[C@@H]7C[C@H]6CN7)nc(OC6CCC7(CC6)COC7)nc45)cc3)nn2)[C@H](C)O)cc1 [Example 96, (2S,4R)-1-((2S)-2-(4-(4-(((2-((2-oxaspiro[3.5]nonan-7-yl)oxy)-4-((1S,4S)-2,5-diazabicyclo[2.2.1]heptan-2-yl)-6-cyclopropyl-7-(6-fluoro-5-methyl-1H-indazol-4-yl)quinazolin-8-yl)oxy)methyl)phenyl)-1H-1,2,3-triazol-1-yl)-3-methylbutanoyl)-4-hydroxy-N-((1R,2S)-2-hydroxy-1-(4-(4-methylthiazol-5-yl)phenyl)propyl)pyrrolidine-2-carboxamide]

Compound	DC50 [1] [nM]	IC50 ([2]; Homo sapiens, ASPC1, 144 h) [nM]	IC50 [2] [nM]
CCn1nccc1-c1ccc([C@@H](NC(=O)[C@@H]2C[C@@H](O)CN2C(=O)[C@H](C(C)C)n2cc(-c3ccc(COc4c(-c5c(C)c(F)cc6[nH]ncc56)c(C5CC5)cc5c(N6CCCNCC6)nc(O[C@H]6C[C@H](OC)C6)nc45)cc3)nn2)[C@H](C)O)cc1 [Example 156, (2S,4R)-1-((2S)-2-(4-(4-(((6-cyclopropyl-4-(1,4-diazepan-1-yl)-7-(6-fluoro-5-methyl-1H-indazol-4-yl)-2-((1r,3r)-3-methoxycyclobutoxy)quinazolin-8-yl)oxy)methyl)phenyl)-1H-1,2,3-triazol-1-yl)-3-methylbutanoyl)-N-((1R,2S)-1-(4-(1-ethyl-1H-pyrazol-5-yl)phenyl)-2-hydroxypropyl)-4-hydroxypyrrolidine-2-carboxamide]	< 10	< 10	–
